Results from patent US20020147232A1 (priority 2000, published 2002).

Columns and labels:
[1] = Stability of desglymidodrine in solution (comparison of peak areas); assay type: physicochemical; details: for 0 days (peak area), autoclave series: before autoclave
Excerpt: The tablets were subject to stability testning. […] The following initial results were obtained:
Stability of desglymidodrinein solution
Based on comparison of peak areas

[2] = Stability of desglymidodrine (calibration curve of desglymidodrine); assay type: physicochemical
[3] = Tsutsui, n = 5 healthy volunteers, label = administered drug, cited from earlier work
[4] = test system: pilomotor reaction; details: oral, seven healthy volunteers; cited from earlier work
[5] = test system: blood pressure; details: cited from earlier work
[6] = test system: blood pressure; details: oral single dose; cited from earlier work
[7] = solution in Buffer pH 7.4, 0 days

## COc1ccc(OC)c(C(O)CN)c1 (stereo not drawn) [desglymidodrine, alpha-(aminomethyl)-2,5-dimethoxy-benzenemethanol]
[1]; solution in 0.1N HCl, 0 days
  peak area, 0 days: 1548689
  0 days (peak area), autoclave series: 99
[1]; solution in 0.1N HCl, 7 days
  peak area, 7 days: 1516212
[1]; solution in 0.1N HCl, after autoclave 120° C.
  Autoclave 120° C.: 101
[1]; [7]
  peak area, 0 days: 1341613
  0 days (peak area), autoclave series: 102
[1]; solution in Buffer pH 7.4, 7 days
  peak area, 7 days: 1289393
[1]; solution in Buffer pH 7.4, after autoclave 120° C.
  Autoclave 120° C.: 102
[1]; solution in Water, 0 days
  peak area, 0 days: 1582140
  0 days (peak area), autoclave series: 100
[1]; solution in Water, 7 days
  peak area, 7 days: 1601999
[1]; solution in Water, after autoclave 120° C.
  Autoclave 120° C.: 100
[2]; Glass, 25° C./60% RH 1.2mioluxh
  content of desglymidodrine, 14 days: 103
[2]; Glass, 25° C./60% RH
  content of desglymidodrine, 0 days: 100
  content of desglymidodrine, 14 days: 103
  content of desglymidodrine, 21 days: 100
[2]; Glass, 40° C./75% RH
  content of desglymidodrine, 14 days: 102
  content of desglymidodrine, 21 days: 100
[2]; Open petri dish, 25° C./60% RH
  content of desglymidodrine, 0 days: 100
  content of desglymidodrine, 14 days: 102
  content of desglymidodrine, 21 days: 100
[2]; Open petri dish, 40° C./75% RH
  content of desglymidodrine, 14 days: 102
  content of desglymidodrine, 21 days: 97
[3]; analyte desglymidodrine
  Tmax desglymidodrine: 1.2 ± 0.2 h
[4]
  duration of effect (pilomotor reaction): 160 (135-185) min
  time to occurrence of pilomotor reaction: 34 ± 25 min
[5]; intravenous injection of 5 mg
  duration of blood pressure effect: 3 to 4 min

## COc1ccc(OC)c(C(O)CNC(=O)CN)c1 (stereo not drawn) [midodrine, 2-amino-N-[2-(2,5-dimethoxyphenyl)-2-hydroxyethyl]-acetamide, reference compound]
[3]; analyte midodrine
  Tmax midodrine: 1.4 ± 0.2 h
[4]
  duration of effect (pilomotor reaction): 150 (30-240) min
  time to occurrence of pilomotor reaction: 74 ± 29 min
[5]; intravenous
  intravenous dose as potent as 5 mg desglymidodrine i.v. with respect to increase of blood pressure: 20 to 25 mg
[6]
  persistence of pressor effect: 3 to 6 h
  time until pressor effect is manifest: 20 to 90 min
